{"source": "patent US4486437A", "about": "“Phthalidyl apovincaminate with cerebral eubolic activity” (Ausonia Farmaceutici s.r.l., priority 1982, dated 1984)", "key": {"[1]": {"experiment": "Acute toxicity, single administration (LD50, Litchfield and Wilcoxon method)", "conditions": "in vivo, rat, read-out: LD50 (95% confidence limit)", "excerpt": "The toxicity of single administrations of AP 698 has been studied in the rat, treating the animals by the oral and intraperitoneal routes with various dosage levels of AP 698.\nThe LD50 values, determined by the Litchfield and Wilcoxon method (J. Pharmacol. Exp. Therap., 1949, 96, 99) are given in Table 1."}, "[2]": {"test_system": "cerebral electrical activity in the waking rabbit", "experiment": "Effect on deterioration of electrogenesis by cerebral ischaemia (EEG)", "type": "in vivo"}, "[3]": {"test_system": "hypobaric hypoxia in the mouse", "experiment": "Changes in mortality caused by hypobaric hypoxia (survival time)", "type": "in vivo", "conditions": "for Survival time (mean values ± standard error): 190 mmHg, controls 72,5 ± 3,5", "procedure": "The experiments were conducted on mice confined in cages in which the pressure was reduced to a level (190 mmHg) which caused the death of the animals.\nAfter determining the survival time of the controls, the effects of various dosage levels of AP 698 were studied."}, "isolated rabbit ileum": {"test_system": "isolated rabbit ileum", "experiment": "Effect on the smooth musculature, isolated rabbit ileum"}, "[4]": {"experiment": "Enzyme hydrolysis in vitro, incubation with rat plasma", "type": "in vitro ADME", "conditions": "apovincaminic acid formed measured by gas chromatography", "excerpt": "(§1) The pharmacokinetics of enzyme hydrolysis has been studied both in vitro and in vivo in the rat after oral administration of AP 698 labelled with tritium."}, "[5]": {"experiment": "Pharmacokinetics in vivo after oral administration of tritium-labelled AP 698", "conditions": "rat; for presence in the plasma: after oral AP 698", "excerpt": "as §1"}, "[6]": {"conditions": "post-ischaemic phase, contrary to controls"}, "[7]": {"conditions": "treated animals vs controls, i.v."}, "[8]": {"conditions": "16 mg/kg i.v., N.S. (MannWhitney)"}, "[9]": {"conditions": "25,6 mg/kg i.v., significance 0.01 (MannWhitney)"}, "[10]": {"conditions": "41,0 mg/kg i.v., significance 0.01 (MannWhitney)"}}, "note": "Where two headings read alike, the source gives them in different places.", "data": [{"molecule": "CCC12C=C(C(=O)OC3OC(=O)c4ccccc43)n3c4c(c5ccccc53)CCN(CCC1)C42", "note": "(stereo not drawn) [AP 698, 13a-ethyl-2,3,5,6,13a,13b-hexahydro-1H-indolo(3,2,1-de)pyrido(3,2,1-ij)(1,5)naphthyridin-12-phthalidyl carboxylate]", "values": [{"measurement": "LD50", "setting": "[1]; ip, i.p.", "value": 684, "unit": "mg/kg"}, {"measurement": "LD50", "setting": "[1]; po, p.o.", "value": "> 3000", "unit": "mg/kg"}, {"measurement": "minimal effective dose", "setting": "[2]; Oryctolagus cuniculus, intravenous at the end of the ischaemic manoeuvre, dose-dependent, read-out: lowest dose with evident therapeutic effect", "value": 0.5, "unit": "mg/kg"}, {"measurement": "amplitude of the theta rhythm", "setting": "[2]; between the 10th and 20th minutes, contrary to controls", "value": "not reduced"}, {"measurement": "(theta+beta)/(delta+alpha) ratios", "setting": "[2]; between the 14th and the 25th minutes, vs controls", "value": "decrease less than in the controls"}, {"measurement": "frequency of the theta rhythm", "setting": "[2]; [6]", "value": "not increased"}, {"measurement": "relative representation times (theta rhythm)", "setting": "[2]; [6]", "value": "not dispersed"}, {"measurement": "beta rhythm", "setting": "[2]; post-ischaemic phase, vs controls", "value": "less reduced than in the controls"}, {"measurement": "recovery of the EEG and of the cortical reactivity to stimulation", "setting": "[2]; [7]", "value": "quicker recovery"}, {"measurement": "return to a trace comparable to that recorded before the ischaemic manoeuvre", "setting": "[2]; [7]", "value": "return in a shorter time"}, {"measurement": "Survival time (mean values ± standard error)", "setting": "[3]; [8]", "value": "67,5 ± 2,5 sec."}, {"measurement": "Variation (survival time)", "setting": "[3]; [8]", "value": "-6,9%"}, {"measurement": "Survival time (mean values ± standard error)", "setting": "[3]; [9]", "value": "116,3 ± 13,5 sec."}, {"measurement": "Variation (survival time)", "setting": "[3]; [9]", "value": "+60,4%"}, {"measurement": "Survival time (mean values ± standard error)", "setting": "[3]; [10]", "value": "157,9 ± 33,2 sec."}, {"measurement": "Variation (survival time)", "setting": "[3]; [10]", "value": "+117,8%"}, {"measurement": "survival time, protective effect on induced hypobaric hypoxia (in words)", "setting": "[3]; mouse, various dosage levels", "value": "highly significant extension of the survival time with a substantial protective effect"}, {"measurement": "myorelaxant activity", "setting": "isolated rabbit ileum; isolated rabbit ileum, compared with vincamine under the same conditions", "value": "considerable myorelaxant activity, decidedly higher than that displayed by vincamine"}, {"measurement": "effect on the tonus and amplitude of the contractions, compared with vincamine", "setting": "isolated rabbit ileum; musculature in basal conditions and made hypertonic with sodium or serotonin", "value": "greater effect"}, {"measurement": "half-life", "setting": "[4]", "value": 7.3, "unit": "min"}, {"measurement": "presence in the plasma", "setting": "[5]", "value": "both unchanged AP 698 and apovincaminic acid in the plasma"}, {"measurement": "half-life", "setting": "[5]; oral, plasma, read-out: half-life of unchanged AP 698", "value": 72, "unit": "min"}]}, {"molecule": "CCC12C=C(C(=O)O)n3c4c(c5ccccc53)CCN(CCC1)C42", "note": "(stereo not drawn) [apovincaminic acid]", "values": [{"measurement": "levels of apovincaminic acid following the administration of AP 698", "setting": "[5]", "value": "persistent levels"}, {"measurement": "presence in the plasma", "setting": "[5]", "value": "both unchanged AP 698 and apovincaminic acid in the plasma"}]}]}
